“And” between values parts separate entries of the source, which are not always exact repeats. Equal entries are not always repeated.
Key:
Type in all cases: physicochemical
[1] = Dye diffusion, solution test; details: pH 13.4, 0.0025 M dye
Source text: (§1) The released dyes in Table I were also subjected to the conditions of two different dye diffusion tests. One, the "solution test" involved dissolving the dye in a viscous composition and transferring it through a receiving element which contains an opaque and reflecting layer in addition to the mordant layer. The other, a "gel pad test" involved imbibing the dye from solution into a thick gelatin layer, and then transferring it by direct lamination to the same receiving element which had been preswollen by soaking 5 minutes in a solution of […].
(§2) A transparent poly(ethylene terephthalate) film support coated with
(§3) (3) an overcoat layer of gelatin (4.3).
The viscous composition was prepared from 46.2 g potassium hydroxide and 54 g carboxymethylcellulose dissolved in 1200 ml water. […] Measurement of the rate of dye diffusion was commenced at the point at which half of the laminate had passed through the rollers. The appearance of dye on the mordant was measured at λmax as diffuse reflection density vs. time. The reflection density was converted to transmission density by computer with the aid of a mathematical relation derived from a previous calibration. A plot of transmission density, which is proportional to concentration vs. time, was derived; and the value of t-1/2 of dye transfer, the time in seconds required to obtain one-half of the maximum transmission density, calculated.

[2] = Dye diffusion, gel pad test; details: 0.1 M KOH, 1.3×10^-3 M dye
Source text: as §1, §2, §3
A donor element, containing a thick pad of deionized acid-processed gelatin (26 g/m^2) hardened with 2 percent bis(vinylsulfonylmethyl)ether, was imbibed with a solution of 0.1 M in potassium hydroxide and 1.3×10^-3 M in dye. The pad was soaked to full penetration, surface wiped, and then laminated in direct contact to the above receiving element which had been presoaked for 5 minutes at 0.1 M KOH. The t-1/2 of dye transfer was obtained as in the solution test.

[3] = Comparative spectra on mordanted strips (Example 2); details: 2:1 nickel complex on mordanted strip; for HBW: band width at half Dmax; for λmax: wavelength(s) at actual Dmax
Source text: The absorption envelope of each of the metallized dyes is described by (1) the wavelength(s), λmax, at the actual Dmax, (2) the λ1/2 which is the mean of the wavelength limits of the absorption envelope at half the maximum density, and (3) the halfband width (HBW) which is the band width at half the Dmax. A narrow HBW generally designates a purer hue.

[4] = Spectra of Ni-dye complexes in solution; details: 3:1 dioxane:water, pH 7, excess nickel ion; for Solution HBW of Ni-dye complex: half band width
Source text: The receiver was removed from the dye solution, washed in distilled water, placed in a pH 7.0 buffer solution and dried. Transmission spectra obtained on each sample of the mordanted dyes were normalized by computer to a density of 1.0. The characteristic wavelength of the dye, λ1/2 in nm, is the mean of the wavelength limits of the absorption envelope at half the maximum density. The HBW ("half band width") in nm is the range or distance between those limits. The dye solution spectrum in 3:1 dioxane:water at pH 7 in the presence of excess nickel ion is also given.

[5] = Transmission spectra of Ni-dye complexes on mordanted receiving element (Example 1); details: pH 7.0 buffer
[6] = Light stability (percent fade after HID xenon arc irradiation); details: 10 days HID 6000 W xenon arc, 50,000 lux, Wratten 2B filter, approx. 38° C.
Source text: An alternative receiving element was used with the premetallized dye-complexes. It comprised a poly(ethylene terephthalate) film support having thereon a layer of gelatin (1.1 g/m^2) and a mordant layer of poly(styrene-co-1-vinylimidazole-co-3-benzyl-1-vinylimidazolium chloride (50:40:10) (4.5 g/m^2) and gelatin (2.2 g/m^2).
The above receiving elements at pH 7 were then subjected to 10 days irradiation by a high intensity daylight (HID), 6000 W Xenon arc lamp, the sample receiving 50,000 lux through a Wratten 2B (ultraviolet) filter at approximately 38° C. and low humidity. The percent fade represents the loss in density at λmax after irradiation.

[7] = Extinction in solution with Ni2+ (synthesis examples)
Method: To a solution of 5.5 g (12.1 mmol) Compound E in 200 ml tetrahydrofuran, 100 ml pyridine and 4.8 g (37.2 mmol) N,N-diisopropylethylamine was added 3.0 g (3.17 mmol) 3,6-bis(1-p-t-butylphenylethyl)-2,5-bis(N-n-dodecylchloroformamidomethyl)benzoquinone (see U.S. Pat. No. 4,204,870, Col. 31). After stirring for 1 hour, an additional 2.5 g (2.64 mmol) of the acid chloride is added and the reaction stirred 28 hours at room temperature. The crude reaction mixture was concentrated to ca. 100 ml in vacuo at 40° C. and the residue was partitioned between ethyl acetate and 3 N HCl. The layers were separated, the organic phase washed with 3 N HCl (until washings were acidic), water and saturated sodium chloride solution. After drying (MgSO4) the organic phase was evaporated in vacuo and the residue recrystallized twice from 350-400 ml ethanol. Yield 7.5 g (72 percent) of yellow solid: ε^550 =13.0×10^4 (3:1 dioxane-pH 6 buffer+excess Ni^2+).
A solution of 5.0 g (31.4 mmol) quinoline-5,8-quinone [T. Urbanski and S. Krzyzanowski, Roczniki Chem., 27, 390 (1953); Chem. Abstr., 49, 1041b (1955)] in 50 ml ethyl alcohol and 100 ml tetrahydrofuran was chilled to <5° C. Concentrated HCl (1 ml) and a cold slurry of 10.0 g (31.8 mmol) 3-chloro-5-(m-hydroxyphenylsulfamoyl)-7-pyridylhydrazine in 100 ml ethyl alcohol/0.5 ml concentrated HCl were added in that order. […]

[8] = nickel sulfate/gelatin + poly(4-vinylpyridine)/gelatin mordant receiver, normalized to density 1.0
[9] = premetallized compound, alternative receiving element

| Dye diffusion t1/2, Soln. [1] [s] | Solution λ1/2 of Ni-dye complex [4] [nm] | Solution HBW of Ni-dye complex [4] [nm] | Mordant HBW of Ni-dye complex [5, 8] [nm] | Mordant λ1/2 of Ni-dye complex [5, 8] [nm] | % Fade (loss in density at λmax) ([6]; low humidity, pH 7) [%] | Compound | Dye diffusion t1/2, Gel Pad [2] [s] | λ1/2 [3] [nm] | HBW [3] [nm] | λmax [3] | further results |
| --- | --- | --- | --- | --- | --- | --- | --- | --- | --- | --- | --- |
| 37 | 560 | 79 | 82 | 563 |  | COc1cc(S(=O)(=O)NC(C)(C)C)cnc1N=Nc1ccc(O)c2cccnc12 [Compound C] |  | 545 | 67 | 560 nm |  |
| 44 | 543 | 68 | 66 | 547 |  | CC(C)NS(=O)(=O)c1cnc(N=Nc2ccc(O)c3cccnc23)c(Cl)c1 [Compound D] |  |  |  |  |  |
| 39 | 544 | 65 | 70 | 550 | 1 | O=S(=O)(Nc1cccc(O)c1)c1cnc(N=Nc2ccc(O)c3cccnc23)c(Cl)c1 [Compound E, 8-[3-Chloro-5-(m-hydroxyphenylsulfamoyl)-2-pyridylazo]-5-quinolinol] |  |  |  |  | ε^550 ([7]; 3:1 dioxane-pH 6 buffer + Ni^2+): 6.6×10^4 |
| 69 | 543 | 68 | 66 | 546 | 0 | CN(c1cccc(O)c1)S(=O)(=O)c1cnc(N=Nc2ccc(O)c3cccnc23)c(Cl)c1 [F] |  |  |  |  |  |
| 81 | 542 | 65 | 70 | 548 | 0 | O=S(=O)(Nc1ccccc1)c1cnc(N=Nc2ccc(O)c3cccnc23)c(Cl)c1 [G] |  |  |  |  |  |
| 49 | 548 | 63 | 72 | 549 | 7 | CC(C)NS(=O)(=O)c1cnc(N=Nc2ccc(O)c3cc(C(=O)Nc4cccc(O)c4)c(Cl)nc23)c(Cl)c1 [H] |  |  |  |  |  |
| 40 | 559 | 78 | 87 | 568 | 0 | COc1cc(S(=O)(=O)Nc2cccc(O)c2)cnc1N=Nc1ccc(O)c2cccnc12 [J] |  |  |  |  |  |

More lines, now with the values behind:

| Compound | Dye diffusion t1/2, Soln. [1] [s] | Solution λ1/2 of Ni-dye complex [4] [nm] | Solution HBW of Ni-dye complex [4] [nm] | Mordant HBW of Ni-dye complex [5, 8] [nm] | Mordant λ1/2 of Ni-dye complex [5, 8] [nm] | % Fade (loss in density at λmax) ([6]; low humidity, pH 7) [%] | Dye diffusion t1/2, Gel Pad [2] [s] | λ1/2 [3] [nm] | HBW [3] [nm] | λmax [3] | further results |
| --- | --- | --- | --- | --- | --- | --- | --- | --- | --- | --- | --- |
| 2:1 nickel complex of 2-(2-pyridylazo)-4-sulfamoyl-1-naphthol [Control Dye 1] | 49 |  |  |  |  |  | 281 | 537 | 101 | 553 nm and 567 nm |  |
| 2:1 nickel complex of 6-(2-carboxy-4-chlorphenylazo)-2,3-pyridinediol [Control Dye 3] |  |  |  |  |  |  |  | 545 | 86 | 555 nm |  |
| NS(=O)(=O)c1cccc(NS(=O)(=O)c2cnc(N=Nc3ccc(O)c4cccnc34)c(Cl)c2)c1 [A] | 41 | 548 | 70 | 76 | 553 | 2 | 183 |  |  |  | Solution HBW of Ni-dye complex ([4]; listed as A'): 68 nm; Solution λ1/2 of Ni-dye complex ([4]; listed as A'): 545 nm; Mordant HBW of Ni-dye complex [5, 9]: 85 nm; Mordant λ1/2 of Ni-dye complex [5, 9]: 555 nm; % Fade (loss in density at λmax) [6, 9]: 3%; Dye diffusion t1/2, Gel Pad ([2]; listed as A'): 235 s |
| NS(=O)(=O)c1cnc(N=Nc2ccc(O)c3cccnc23)c(Cl)c1 [B] | 31 | 543 | 65 | 67 | 545 | 0 | 108 |  |  |  | Solution HBW of Ni-dye complex ([4]; listed as B'): 68 nm; Solution λ1/2 of Ni-dye complex ([4]; listed as B'): 544 nm; Mordant HBW of Ni-dye complex [5, 9]: 71 nm; Mordant λ1/2 of Ni-dye complex [5, 9]: 546 nm; % Fade (loss in density at λmax) [6, 9]: 4%; Dye diffusion t1/2, Gel Pad ([2]; listed as B'): 161 s |
| CCCCCCCCCCCCN(CC1=C(C(C)c2ccc(C(C)(C)C)cc2)C(=O)C(CN(CCCCCCCCCCCC)C(=O)Oc2cccc(NS(=O)(=O)c3cnc(N=Nc4ccc(O)c5cccnc45)c(Cl)c3)c2)=C(C(C)c2ccc(C(C)(C)C)cc2)C1=O)C(=O)Oc1cccc(NS(=O)(=O)c2cnc(N=Nc3ccc(O)c4cccnc34)c(Cl)c2)c1 (stereo not drawn) [Compound 3] |  |  |  |  |  |  |  |  |  |  | ε^550 ([7]; 3:1 dioxane-pH 6 buffer + excess Ni^2+): 13.0×10^4 |
| CN(c1ccccc1)c1ccc(N=Nc2ccc(S(N)(=O)=O)cn2)c([O-])c1.CN(c1ccccc1)c1ccc(N=Nc2ccc(S(N)(=O)=O)cn2)c([O-])c1.[Ni+2] [Control Dye 2, 2:1 nickel complex of 2-(5-sulfamoyl-2-pyridylazo)-5-(N-methylanilino)phenol] | 45 |  |  |  |  |  | 265 | 540 | 116 | 540 nm and 572 nm |  |

From patent publication US4436799A, “Photographic products and processes employing novel nondiffusible magenta dye-releasing compounds and precursors thereof” (priority 1983, dated 1984)
